# From patent publication EP1561465A2, “Methods of use of fluoroquinolone compounds against bacteria” (LG Life Sciences, Ltd., priority 1999, dated 2001)
# Like-named read-outs stand apart in the source and are kept apart here.
# What was measured:
# Assay type in all cases: cell-based
# [1] = test system: Moraxella catarrhalis; test: MIC by NCCLS reference broth microdilution, 450 respiratory tract pathogens
# [2] = test system: Moraxella catarrhalis; test: MIC by two-fold serial agar dilution, Sensitivity Disk agar-N (Kitasato isolates); details: Moraxella catarrhalis (22)
# [3] = test system: Escherichia coli; test: MIC by agar dilution (NCCLS), 322 nosocomial Gram negative isolates, Athens 1998; details: n = 57 isolates
# [4] = test system: Enterococcus faecium; test: MIC by NCCLS broth microdilution, 1100 Japanese clinical isolates 1997-1998; details: for MIC: Enterococcus faecium
# [5] = test system: Hafnia alvei; test: MIC by agar dilution (NCCLS M7-A4), 288 enteropathogenic isolates, gemifloxacin and 15 other antimicrobials; details: Hafnia alvei N= 32
# [6] = test system: Enterococcus faecalis; test: MIC by agar macrodilution (NCCLS), 373 Gram positive isolates, Athens 1998
# [7] = test system: Escherichia coli; test: MIC by NCCLS broth microdilution, 1100 Japanese clinical isolates 1997-1998; details: for MIC50 / MIC90: Escherichia coli
# [8] = test system: Acinetobacter spp.; test: MIC by agar dilution (NCCLS), 322 nosocomial Gram negative isolates, Athens 1998; details: n = 38 strains
# [9] = test system: Streptococcus pneumoniae; test: MIC by NCCLS reference broth microdilution, 450 respiratory tract pathogens; details: Streptococcus pneumoniae
# [10] = Escherichia coli ciprofloxacin susceptible (n=37)
# [11] = Streptococcus pneumoniae (n = 100)
# [12] = erythromycin resistant M phenotype (n = 16)
# [13] = erythromycin resistant MLSB phenotype (n = 16)
# [14] = penicillin intermediate (n = 16)
# [15] = penicillin susceptible (n = 20)
compound,measurement,setting,value
"N[C@@H]1[C@H]2CN(c3nc4c(cc3F)c(=O)c(C(=O)O)cn4-c3ccc(F)cc3F)C[C@@H]12 [Trovafloxacin, trovafloxacin]",MIC90,[1]; β-lactamase negative (n = 13),0.036 µg/mL
same,MIC,[1]; β-lactamase positive (n = 37),0.00375 to 0.06 µg/mL
same,MIC50,[1]; β-lactamase positive (n = 37),0.015 µg/mL
same,MIC90,[1]; β-lactamase positive (n = 37),0.03 µg/mL
same,MIC50,[2],0.016 µg/mL
same,MIC90,[2],0.031 µg/mL
same,MIC Range,[2],0.016 to 0.031 µg/mL
same,MIC50,[3]; Escherichia coli,0.06 µg/mL
same,MIC90,[3]; Escherichia coli,0.25 µg/mL
same,MIC Range,[3],≤0.03 to 64 µg/mL
same,MIC50,[4]; Enterococcus faecium (n=39),16 µg/mL
same,MIC90,[4]; Enterococcus faecium (n=39),64 µg/mL
same,MIC Range,[4]; Enterococcus faecium (n=39),0.25 to 64 µg/mL
same,MIC,"[4]; Enterococcus faecium (vanA) vancomycin resistant, strain TMS1",8 µg/mL
same,MIC,"[4]; Enterococcus faecium (vanA) vancomycin resistant, strain TMS2",1 µg/mL
same,MIC,"[4]; Enterococcus faecium (vanA) vancomycin resistant, strain TMS3",8 µg/mL
same,MIC,"[4]; Enterococcus faecium (vanA) vancomycin resistant, strain TMS4",8 µg/mL
same,MIC,"[4]; Enterococcus faecium (vanA) vancomycin resistant, strain TMS5",2 µg/mL
same,MIC,"[4]; Enterococcus laecium (van B) vancomycin resistant, strain TMS6",32 µg/mL
same,MIC,"[4]; Enterococcus laecium (van B) vancomycin resistant, strain TMS7",32 µg/mL
same,MIC,"[5]; 24 h, read-out: MIC (mg/L) Range",0.03 to 0.12 mg/L
same,MIC,[5]; read-out: MIC (mg/L) 50%,0.06 mg/L
same,MIC,[5]; read-out: MIC (mg/L) 90%,0.06 mg/L
same,MIC distribution (µg/ml) 0.06,[6],1
same,MIC distribution (µg/ml) 0.125,[6],0
same,MIC distribution (µg/ml) 0.25,[6],6
same,MIC distribution (µg/ml) 0.5,[6],21
same,MIC distribution (µg/ml) 1,[6],23
same,MIC distribution (µg/ml) 2,[6],6
same,MIC distribution (µg/ml) 4,[6],0
same,MIC distribution (µg/ml) 8,[6],3
same,MIC distribution (µg/ml) 16,[6],3
same,MIC distribution (µg/ml) ≤0.015,[6],0
same,MIC distribution (µg/ml) ≥32,[6],17
same,MIC50,"[6]; Enterococcus faecalis, n = 81 isolates, read-out: MIC50",1 µg/mL
same,MIC90,"[6]; Enterococcus faecalis, n = 81 isolates, read-out: MIC90",≥ 32 µg/mL
same,MIC Range,[7]; [10],≤0.008 to 0.25 µg/mL
same,MIC50,[7]; Escherichia coli ciprofloxacin resistant (n=5),64 µg/mL
same,MIC90,"[7]; Escherichia coli ciprofloxacin resistant (n=5), values marked *: MIC80 value",64 µg/mL
same,MIC50,[7]; [10],0.016 µg/mL
same,MIC90,[7]; [10],0.032 µg/mL
same,MIC50,[8]; Acinetobacter,2 µg/mL
same,MIC90,[8]; Acinetobacter,16 µg/mL
same,MIC Range,[8],≤0.03 to 32 µg/mL
same,MIC,[9]; [11],0.03 to 0.25 µg/mL
same,MIC50,[9]; [11],0.12 µg/mL
same,MIC90,[9]; [11],0.12 µg/mL
same,MIC,[9]; [12],0.06 to 0.12 µg/mL
same,MIC50,[9]; [12],0.06 µg/mL
same,MIC90,[9]; [12],0.12 µg/mL
same,MIC,[9]; [13],0.06 to 0.12 µg/mL
same,MIC50,[9]; [13],0.06 µg/mL
same,MIC90,[9]; [13],0.12 µg/mL
same,MIC,[9]; multi-drug resistant (n = 16),0.06 to 0.12 µg/mL
same,MIC50,[9]; multi-drug resistant (n = 16),0.06 µg/mL
same,MIC90,[9]; multi-drug resistant (n = 16),0.12 µg/mL
same,MIC,[9]; [14],0.06 to 0.12 µg/mL
same,MIC50,[9]; [14],0.12 µg/mL
same,MIC90,[9]; [14],0.12 µg/mL
same,MIC,[9]; penicillin resistant (n = 18),0.06 to 0.25 µg/mL
same,MIC50,[9]; penicillin resistant (n = 18),0.12 µg/mL
same,MIC90,[9]; penicillin resistant (n = 18),0.12 µg/mL
same,MIC,[9]; [15],0.06 to 0.12 µg/mL
same,MIC50,[9]; [15],0.12 µg/mL
same,MIC90,[9]; [15],0.12 µg/mL
